Measurements: ChEMBL document CHEMBL1201862, “PubChem BioAssay data set” (2004)
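Step 1: Grow cells in 96-well plates. Step 2: Expose to compound for 48 hours at 5 concentrations. Step 3: Interpolate endpoints linearly; if unreached, use highest concentration. GI50 marks 50% less growth.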 The source made the active and inactive calls. Rule as the data show it: active = GI50 up to about 1.1 µM and inactive = higher.

Experiments:
Experiment in all cases: growth of human tumour cells (NCI), 48 h
786-0 = test system: 786-0
ACHN = test system: ACHN
HCC 2998 = test system: HCC 2998
HOP-92 = test system: HOP-92
HT-29 = test system: HT-29
LOX IMVI = test system: LOX IMVI
MCF7 = test system: MCF7
Malme-3M = test system: Malme-3M
NCI-H23 = test system: NCI-H23
OVCAR-3 = test system: OVCAR-3
RXF 393 = test system: RXF 393
SK-MEL-5 = test system: SK-MEL-5
SNB-19 = test system: SNB-19
SNB-75 = test system: SNB-75
SW-620 = test system: SW-620
U-251 = test system: U-251
UO-31 = test system: UO-31
IGROV-1 = test system: IGROV-1
NCI-H522 = test system: NCI-H522
T47D = test system: T47D

Row | SMILES | GI50 (786-0) | GI50 (ACHN) | GI50 (HCC 2998) | GI50 (HOP-92) | GI50 (HT-29) | GI50 (LOX IMVI) | GI50 (MCF7) | GI50 (Malme-3M) | GI50 (NCI-H23) | GI50 (OVCAR-3) | GI50 (RXF 393) | GI50 (SK-MEL-5) | GI50 (SNB-19) | GI50 (SNB-75) | GI50 (SW-620) | GI50 (U-251) | GI50 (UO-31) | GI50 (IGROV-1) | GI50 (NCI-H522) | GI50 (T47D)
1 | Nc1cnc2c(c1)c(=O)nc1n2CCS1 | > 100 µM (inactive) | > 100 µM (inactive) | > 100 µM (inactive) | > 100 µM (inactive) | > 100 µM (inactive) | > 100 µM (inactive) | > 100 µM (inactive) | > 100 µM (inactive) | > 100 µM (inactive) | > 100 µM (inactive) | > 100 µM (inactive) | > 100 µM (inactive) | > 100 µM (inactive) | 86.9 µM (inactive) | > 100 µM (inactive) | > 100 µM (inactive) | 64 µM (inactive) |  |  | 
2 | Nc1ccccc1-n1c2c(c3ccccc3c1=O)C(=O)c1ccccc1-2 | 7.62 µM (inactive) | 5.53 µM (inactive) | 21.8 µM (inactive) | 16.6 µM (inactive) | 18.4 µM (inactive) | 12.5 µM (inactive) | 13.3 µM (inactive) | 16.3 µM (inactive) | 7.5 µM (inactive) | 21.8 µM (inactive) |  | 10.4 µM (inactive) | 5 µM (inactive) | 11.8 µM (inactive) | 14.5 µM (inactive) | 15.2 µM (inactive) | 11.1 µM (inactive) | 9.68 µM (inactive) | 6.58 µM (inactive) | 
3 | Cc1cc(C)nc(NS(=O)(=O)c2ccc(NC(=O)NC(F)(F)F)cc2)n1 | > 100 µM (inactive) | > 100 µM (inactive) | > 100 µM (inactive) |  | > 100 µM (inactive) | > 100 µM (inactive) |  |  | > 100 µM (inactive) |  | > 100 µM (inactive) | > 100 µM (inactive) | > 100 µM (inactive) | > 100 µM (inactive) | > 100 µM (inactive) | > 100 µM (inactive) | > 100 µM (inactive) | > 100 µM (inactive) |  | > 100 µM (inactive)
4 | CC1=C(C(=O)Nc2ccccc2)C(c2ccc(C(C)C)cc2)C(C(=O)Nc2ccccc2)=C(C)N1 | 15 µM (inactive) | 17.3 µM (inactive) | 7.19 µM (inactive) | 14.2 µM (inactive) | 15.2 µM (inactive) | 15 µM (inactive) |  | 15.5 µM (inactive) | 20 µM (inactive) | 18.2 µM (inactive) | 11.8 µM (inactive) | 12.9 µM (inactive) | 29.4 µM (inactive) | 18.7 µM (inactive) | 17.2 µM (inactive) | 16 µM (inactive) | 12.5 µM (inactive) | 23.2 µM (inactive) | 15.1 µM (inactive) | 
5 | Oc1ccc2c(c1)c1c(n2CCN2CCOCC2)-c2ccccc2CC1 | 57.8 µM (inactive) | 28.2 µM (inactive) |  |  | 24.2 µM (inactive) | 23.6 µM (inactive) | 31.6 µM (inactive) | 19.6 µM (inactive) | 27.8 µM (inactive) | 22 µM (inactive) | 29.6 µM (inactive) |  | 24.8 µM (inactive) | 28 µM (inactive) | 30.1 µM (inactive) | 25.6 µM (inactive) | 23.6 µM (inactive) | 15.1 µM (inactive) |  | 
6 | O=c1[nH]nc(-c2ccccc2)c2[nH]c(-c3ccccc3)cc12 | > 100 µM (inactive) |  |  | > 100 µM (inactive) | 12.2 µM (inactive) | > 100 µM (inactive) |  | > 100 µM (inactive) | > 100 µM (inactive) | > 100 µM (inactive) | > 100 µM (inactive) |  | > 100 µM (inactive) | 45.8 µM (inactive) | > 100 µM (inactive) |  | > 100 µM (inactive) | > 100 µM (inactive) |  | 25.5 µM (inactive)
7 | COc1cc2c(cc1O)C1C(O)C(O)C=C3CCN(C2)C31 (stereo not drawn) | 2.39 µM (inactive) | 1.85 µM (inactive) | 2.4 µM (inactive) | 1.16 µM (inactive) | 3.17 µM (inactive) | 0.76 µM (active) |  | 0.587 µM (active) | 2.13 µM (inactive) | 2.67 µM (inactive) | 1.45 µM (inactive) | 1.46 µM (inactive) | 1.39 µM (inactive) | 2.65 µM (inactive) | 2.49 µM (inactive) | 2.98 µM (inactive) | 2.77 µM (inactive) | 2.74 µM (inactive) | 1.8 µM (inactive) | 
8 | CC(=O)Nc1c(S(=O)(=O)c2ccccc2)c(C)c(C)n1Cc1ccccc1 | > 100 µM (inactive) | > 100 µM (inactive) | > 100 µM (inactive) | > 100 µM (inactive) | > 100 µM (inactive) |  |  | > 100 µM (inactive) | > 100 µM (inactive) | 52.8 µM (inactive) | > 100 µM (inactive) | 83.8 µM (inactive) | > 100 µM (inactive) | > 100 µM (inactive) | > 100 µM (inactive) | > 100 µM (inactive) | > 100 µM (inactive) | > 100 µM (inactive) | > 100 µM (inactive) | > 10 µM (inactive)
